Experimental data: ChEMBL document CHEMBL1201862, “PubChem BioAssay data set” (2004)
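Values below derive from 48-hour exposures of cells grown in 96-well plates, with endpoints linearly interpolated between the two concentrations bracketing the appropriate inhibition level. GI50: concentration for 50% inhibition of growth.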 Activity calls are given as the source filed them. Cut-off read from the data, not from the text of the source: active = GI50 up to about 1.1 µM and inactive = higher.

Tests used:
Experiment in all cases: growth of human tumour cells (NCI), 48 h
TK-10 = test system: TK-10
SK-MEL-28 = test system: SK-MEL-28
SNB-19 = test system: SNB-19
IGROV-1 = test system: IGROV-1
UO-31 = test system: UO-31
NCI-H460 = test system: NCI-H460
SK-MEL-5 = test system: SK-MEL-5
SK-OV-3 = test system: SK-OV-3
HL-60 = test system: HL-60
U-251 = test system: U-251
NCI-H23 = test system: NCI-H23
OVCAR-5 = test system: OVCAR-5
MCF7 = test system: MCF7
MDA-MB-231 = test system: MDA-MB-231
HCC 2998 = test system: HCC 2998
A549 = test system: A549
UACC-62 = test system: UACC-62
NCI-H522 = test system: NCI-H522
PC-3 = test system: PC-3
DU-145 = test system: DU-145

Measured: GI50

COc1ccc2c(c1)CCN=C2Cc1ccccc1CCCl
inactive: TK-10 53.2 µM | SK-MEL-28 32.6 µM | SNB-19 25.8 µM | IGROV-1 25.8 µM | UO-31 16.5 µM | NCI-H460 15.4 µM | SK-MEL-5 17.5 µM | SK-OV-3 39.3 µM | HL-60 14.2 µM | U-251 33.1 µM | NCI-H23 20.8 µM | OVCAR-5 40.5 µM | MCF7 26 µM | MDA-MB-231 15.4 µM | HCC 2998 17.1 µM | A549 28.6 µM | UACC-62 22.5 µM | NCI-H522 19.6 µM | PC-3 25.8 µM | DU-145 50.5 µM

COC(=O)C1CC23CCCN4CCC5(c6ccccc6N(C=O)C15CC2)C43 (stereo not given)
inactive: TK-10 > 100 µM | SK-MEL-28 > 100 µM | SNB-19 > 100 µM | IGROV-1 > 100 µM | UO-31 > 100 µM | NCI-H460 > 100 µM | SK-MEL-5 > 100 µM | SK-OV-3 > 100 µM | HL-60 > 100 µM | U-251 > 100 µM | NCI-H23 > 100 µM | OVCAR-5 > 100 µM | MCF7 > 100 µM | MDA-MB-231 > 100 µM | HCC 2998 > 100 µM | A549 > 100 µM | UACC-62 > 100 µM | NCI-H522 > 100 µM | PC-3 > 100 µM | DU-145 > 100 µM
